Where a SMILES comes first, the peptide text is derived from it. Bridges are numbered along the chain shown (N, C = ends). [ ]: non-standard residue; d: D form. The star is where a group is joined. hPhe(3,5-F2-4-CF3) = N[C@@H](CCc1cc(F)c(C(F)(F)F)c(F)c1)C(=O)O; hPhe(3-Cl-4-CF3) = N[C@@H](CCc1ccc(C(F)(F)F)c(Cl)c1)C(=O)O; NPrPhe(4-CF3) = CCCN[C@@H](Cc1ccc(C(F)(F)F)cc1)C(=O)O; NMeGly(cPent) = CN[C@H](C(=O)O)C1CCCC1; Pro(4,4-Me2) = CC1(C)CN[C@H](C(=O)O)C1; NMeD = CN[C@@H](CC(=O)O)C(=O)O; NMeL = CN[C@@H](CC(C)C)C(=O)O; αMeS = C[C@](N)(CO)C(=O)O; Morpholide = C1CN(*)CCO1; Ac5c = NC1(C(=O)O)CCCC1; Aze = O=C(O)[C@@H]1CCN1; Sar = CNCC(=O)O; Allyl = C=CC*
What was measured:
[1] = target: GDP-bound HRAS wild-type protein (Homo sapiens, UniProt P01112); experiment: Binding to HRAS by surface plasmon resonance (SPR), Single Cycle Kinetics; details: SPR
[2] = target: GDP-bound NRAS wild-type protein (Homo sapiens, UniProt P01111); experiment: Binding to NRAS by surface plasmon resonance (SPR), Single Cycle Kinetics; details: SPR
[3] = KD ratio, GDP-bound HRAS wild-type vs GDP-bound KRAS wild-type
[4] = KD ratio, GDP-bound NRAS wild-type vs GDP-bound KRAS wild-type

Sequence of GDP-bound NRAS wild-type protein (P01111 whole entry): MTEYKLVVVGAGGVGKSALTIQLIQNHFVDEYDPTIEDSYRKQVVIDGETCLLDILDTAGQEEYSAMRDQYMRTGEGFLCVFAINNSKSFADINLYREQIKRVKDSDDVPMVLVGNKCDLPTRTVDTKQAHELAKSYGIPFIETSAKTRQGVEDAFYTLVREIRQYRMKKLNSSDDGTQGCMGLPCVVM
Sequence of GDP-bound HRAS wild-type protein (P01112 whole entry): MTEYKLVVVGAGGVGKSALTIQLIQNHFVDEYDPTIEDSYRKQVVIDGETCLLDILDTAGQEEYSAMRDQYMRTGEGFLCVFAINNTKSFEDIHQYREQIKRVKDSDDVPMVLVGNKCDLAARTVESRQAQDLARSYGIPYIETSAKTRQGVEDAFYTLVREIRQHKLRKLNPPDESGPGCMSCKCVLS

`CC[C@H](C)[C@@H]1NC(=O)[C@H](CC)N(C)C(=O)C[C@@H](C(=O)N(C)C)N(CC)C(=O)[C@H](C2CCCC2)N(C)C(=O)C2(CCC2)NC(=O)[C@@H]2CCCCN2C(=O)[C@H](CCc2cc(F)c(C(F)(F)F)c(F)c2)NC(=O)CN(C)C(=O)[C@H](Cc2ccc(C(F)(F)F)cc2)N2CCCC[C@@H](C2=O)N(C)C(=O)CN(C)C1=O` [PP0661] was tested, and the “HRAS/KRAS (ratio of KD value with respect to GDP-bound HRAS wild-type protein to KD value with respect to KRAS)” value ([1]; KD ratio HRAS/KRAS) was “B (a compound having 3 or more and less than 10 is denoted as B)” and the “NRAS/KRAS (ratio of KD value with respect to GDP-bound NRAS wild-type protein to KD value with respect to KRAS)” value ([2]; KD ratio NRAS/KRAS) was “C (A compound having a KD ratio of 0.1 or more and less than 3 is denoted as C)”.
For `C=CCOC[C@]1(C)NC(=O)[C@@H]2CCCN2C(=O)[C@H](CCc2cc(F)c(C(F)(F)F)c(F)c2)NC(=O)CN(C)C(=O)[C@H](Cc2ccc(C(F)(F)F)cc2)N(CCC)C(=O)CN(C)C(=O)[C@@H]2CCN2C(=O)[C@H]([C@@H](C)CC)NC(=O)[C@H](CC(C)C)N(C)C(=O)C[C@@H](C(=O)N2CCOCC2)N(C)C(=O)[C@H](C2CCCC2)N(C)C1=O` [PP0780] ([NMeL]I[Aze][Sar][NPrPhe(4-CF3)][Sar][hPhe(3,5-F2-4-CF3)]P[αMeS](Allyl)[NMeGly(cPent)][NMeD]-Morpholide; lactam N-11), the “HRAS/KRAS (ratio of KD value with respect to GDP-bound HRAS wild-type protein to KD value with respect to KRAS)” value ([1]; KD ratio HRAS/KRAS) was “B (a compound having 3 or more and less than 10 is denoted as B)” and the “NRAS/KRAS (ratio of KD value with respect to GDP-bound NRAS wild-type protein to KD value with respect to KRAS)” value ([2]; KD ratio NRAS/KRAS) was “B (a compound having 3 or more and less than 10 is denoted as B)”.
For `CCCN(C)C(=O)[C@@H]1CC(=O)N(C)[C@@H](COC)C(=O)N[C@@H]([C@@H](C)CC)C(=O)N(C)CC(=O)N(C)[C@H]2C/C=C\CCN(C2=O)[C@@H](Cc2ccc(C(F)(F)F)cc2)C(=O)N(C)CC(=O)N[C@@H](CCc2cc(F)c(Cl)c(F)c2)C(=O)N2C[C@H](OCC)C[C@H]2C(=O)NC2(CC(C)(C)C2)C(=O)N(C)[C@@H](C2CCCC2)C(=O)N1C` [PP1763], the “HRAS/KRAS (ratio of KD value for HRAS to KD value for KRAS)” value [1, 3] was “A (a compound having 10 or more and less than 20 is denoted as A)” and the “NRAS/KRAS (ratio of KD value for NRAS to KD value for KRAS)” value [2, 4] was “A (a compound having 10 or more and less than 20 is denoted as A)”.
With `CCOC[C@H]1C(=O)N[C@@H]([C@@H](C)CC)C(=O)N(C)CC(=O)N(C)[C@H]2C/C=C\CCN(C2=O)[C@@H](Cc2ccc(C(F)(F)F)cc2)C(=O)N(C)CC(=O)N[C@@H](CCc2ccc(C(F)(F)F)c(OC)c2)C(=O)N2C[C@@H](C)C[C@H]2C(=O)NC2(CCC2)C(=O)N(C)[C@@H](C2CCCC2)C(=O)N(C)[C@H](C(=O)N(C)CC)CC(=O)N1C` [PP2026] the “HRAS/KRAS (ratio of KD value for HRAS to KD value for KRAS)” value [1, 3] was “A (a compound having 10 or more and less than 20 is denoted as A)” and the “NRAS/KRAS (ratio of KD value for NRAS to KD value for KRAS)” value [2, 4] was “A (a compound having 10 or more and less than 20 is denoted as A)”.
In the case of `CCCN1C(=O)CN(C)C(=O)CN(C)C(=O)[C@H]([C@@H](C)CC)NC(=O)[C@H](CC(C)C)N(C)C(=O)C[C@@H](C(=O)N2CCOCC2)N(C)C(=O)[C@H](C2CCCC2)N(C)C(=O)C2(CCCC2)NC(=O)[C@@H]2CC(C)(C)CN2C(=O)[C@H](CCc2ccc(C(F)(F)F)c(Cl)c2)NC(=O)CN(C)C(=O)[C@@H]1Cc1ccc(C(F)(F)F)cc1` [PP0446] ([NMeL]I[Sar][Sar][NPrPhe(4-CF3)][Sar][hPhe(3-Cl-4-CF3)][Pro(4,4-Me2)][Ac5c][NMeGly(cPent)][NMeD]-Morpholide; lactam N-11), the “HRAS/KRAS (ratio of KD value with respect to GDP-bound HRAS wild-type protein to KD value with respect to KRAS)” value ([1]; KD ratio HRAS/KRAS) is reported as “C (A compound having a KD ratio of 0.1 or more and less than 3 is denoted as C)” and the “NRAS/KRAS (ratio of KD value with respect to GDP-bound NRAS wild-type protein to KD value with respect to KRAS)” value ([2]; KD ratio NRAS/KRAS) is reported as “B (a compound having 3 or more and less than 10 is denoted as B)”.
`CCO[C@@H]1C[C@H]2C(=O)NC3(CCC3)C(=O)N(C)[C@@H](C3CCCC3)C(=O)N(C)[C@H](C(=O)N(C)C)CC(=O)N(C)[C@@H](Cc3cccc(C)c3)C(=O)N[C@@H]([C@@H](C)CC)C(=O)N(C)CC(=O)N(C)[C@H]3CCCCCN(C3=O)[C@@H](Cc3ccc(C(F)(F)F)cc3)C(=O)N(C)CC(=O)N[C@@H](CCc3cc(F)c(C(F)(F)F)c(F)c3)C(=O)N2C1` [PP0942] was tested, and the “HRAS/KRAS (ratio of KD value with respect to HRAS to KD value with respect to KRAS)” value [1, 3] was “B (a compound having 3 or more and less than 10 is denoted as B)” and the “NRAS/KRAS (ratio of KD value with respect to NRAS to KD value with respect to KRAS)” value [2, 4] was “B (a compound having 3 or more and less than 10 is denoted as B)”.
For `CC[C@H](C)[C@@H]1NC(=O)[C@H](CC(C)C)N(C)C(=O)C[C@@H](C(=O)N2CCOCC2)N(C)C(=O)[C@H](C2CCCC2)N(C)C(=O)C2(CCCC2)NC(=O)[C@@H]2CCCN2C(=O)[C@H](CCc2ccc(C(F)(F)F)c(Cl)c2)NC(=O)CN(C)C(=O)[C@H](Cc2ccc(C(F)(F)F)cc2)N2CCCCC[C@@H](C2=O)N(C)C(=O)CN(C)C1=O` (stereo in doubt) [PP0319], the “HRAS/KRAS (ratio of KD for GDP-bound HRAS wild-type to KD for KRAS)” value ([1]; KD ratio HRAS/KRAS) was “B (a compound having 3 or more and less than 10 is denoted as B)” and the “NRAS/KRAS (ratio of KD for GDP-bound NRAS wild-type to KD for KRAS)” value ([2]; KD ratio NRAS/KRAS) was “B (a compound having 3 or more and less than 10 is denoted as B)”.
